Where two headings read alike, the source gives them in different places.
Columns and labels:
[1] = molecular target: RORγ ligand binding domain (LBD) (Homo sapiens (Human), UniProt P51449); test: TR-FRET Activity Assay (ligand sensing assay, LANCE); conditions: for pIC50 (FRET): TR-FRET, interaction of RORγ-LBD with coactivator peptide
Source text: The ligand-binding domain (LBD) of RORγ was expressed as fusion protein with GST in BL-21 (BL3) cells using the vector pDEST15. Cells were lysed by lysozyme-treatment and sonication, and the fusion proteins purified over glutathione sepharose (Pharmacia) according to the manufacturers instructions. For screening of compounds for their influence on the RORγ-peptide interaction, the LANCE technology (Perkin Elmer) was applied. This method relies on the binding dependent energy transfer from a donor to an acceptor fluorophor attached to the binding partner of interest. For ease of handling and reduction of background from compound fluorescence LANCE technology makes use of generic fluorophore labels and time resolved detection assays were done in a final volume of 25 μL in a 384 well plate, in a Tris-based buffer system (20 mM Tris-HCl pH 6.8; 60 mM KCl, 1 mM DTT; 5 mM MgCl2; 35 ng/μL BSA), containing 20-60 ng/well recombinantly expressed RORγ-LBD fused to GST, 200-600 nM N-terminally biotinylated peptide, 200 ng/well Streptavidin-xlAPC conjugate (Prozyme) and 6-10 ng/well Eu W1024-antiGST (Perkin Elmer). DMSO content of the samples was kept at 1%.
After generation of the Tris-based buffer system, the potentially RORγ modulating ligands were diluted. […] The LANCE signal was detected by a Perkin Elmer EnVision™ Multilabel Counter. […] Ligands that promote the complex formation induce a concentration-dependent increase in time-resolved fluorescent signal.
Y is the response. Y starts at Bottom and goes to Top with a sigmoidal shape.
This is identical to the “four parameter logistic equation”. The IC50 values are calculated using this equation.

[2] = molecular target: RORγ (Homo sapiens, UniProt P51449); test: RORγ Gal4 Reporter Gene Assay; type: cell-based
How it was run: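 Cells at 5×10^5/well were transfected with RORγ fragments fused to the GAL4 DNA-binding domain (CMV promoter), a 5×GAL4-site firefly luciferase reporter and CMV-Renilla luciferase for normalization. About 4 h later serum-free MEM and compound were added (vehicle ≤0.1%). Cultures at 37 °C, 5% CO2; at least triplicates.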

[3] = firefly (FF) luciferase, 293T cells
[4] = renilla normalised (RENnorm) luciferase, 293T cells

RORγ, sequence (P51449 whole entry, looked up, the tested form may be a part): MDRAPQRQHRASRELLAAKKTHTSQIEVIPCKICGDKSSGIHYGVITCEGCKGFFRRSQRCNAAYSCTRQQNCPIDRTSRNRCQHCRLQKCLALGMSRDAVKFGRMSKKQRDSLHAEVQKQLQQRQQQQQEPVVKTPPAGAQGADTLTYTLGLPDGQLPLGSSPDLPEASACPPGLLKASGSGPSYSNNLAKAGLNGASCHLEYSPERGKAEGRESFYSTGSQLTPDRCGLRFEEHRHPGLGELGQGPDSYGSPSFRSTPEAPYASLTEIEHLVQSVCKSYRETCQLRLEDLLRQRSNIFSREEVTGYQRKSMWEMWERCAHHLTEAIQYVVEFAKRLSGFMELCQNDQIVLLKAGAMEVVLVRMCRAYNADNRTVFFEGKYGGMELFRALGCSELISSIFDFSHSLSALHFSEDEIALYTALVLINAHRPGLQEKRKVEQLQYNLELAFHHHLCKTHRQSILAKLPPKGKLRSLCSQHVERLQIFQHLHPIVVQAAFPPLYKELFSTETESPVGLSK
RORγ ligand binding domain (LBD), sequence (P51449 269-508): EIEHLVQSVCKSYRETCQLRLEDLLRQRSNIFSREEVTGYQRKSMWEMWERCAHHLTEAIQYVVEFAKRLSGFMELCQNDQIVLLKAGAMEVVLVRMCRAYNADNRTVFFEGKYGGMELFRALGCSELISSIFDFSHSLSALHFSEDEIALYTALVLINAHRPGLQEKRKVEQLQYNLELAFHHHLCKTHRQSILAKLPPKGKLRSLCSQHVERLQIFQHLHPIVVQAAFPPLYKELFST

| SMILES | IC50 [1] | pIC50 (FF) [2, 3] | pIC50 (REN) [2, 4] | pIC50 (FRET) [1] | pIC50 (FF) [2] | pIC50 (REN) [2] | IC50 ([2]; firefly (FF) luciferase, 293T cells, read-out: pIC50 (FF) (converted)) | IC50 ([2]; renilla normalised (RENnorm) luciferase, 293T cells, read-out: pIC50 (REN) (converted)) |
| --- | --- | --- | --- | --- | --- | --- | --- | --- |
| CC(C)(C)c1cc(-c2sc(C(=O)N[C@H]3C[C@H](C(=O)O)C3)[n+]([O-])c2CC2CCCCC2)cc(C(C)(C)C)n1 [Example 22, 2-(((trans)-3-Carboxycyclobutyl)carbamoyl)-4-(cyclohexylmethyl)-5-(2,6-di-tert-butylpyridin-4-yl)thiazole 3-oxide] | 398 nM | 7.1 | 7.1 |  |  |  |  |  |
| CC(C)(C)NS(=O)(=O)c1ccc(-c2sc(C(=O)NC3CCC3)[n+]([O-])c2CC2CCCCC2)c2ccccc12 [Example 22/1] |  | 7.5 | 7.5 | 6.4 |  |  |  |  |
| CC(C)(C)c1cc(-c2sc(C(=O)N[C@H]3C[C@H](C(=O)O)C3)nc2CC2CCCCC2)cc(C(C)(C)O)c1 [Example 23, (trans)-3-(5-(3-(tert-Butyl)-5-(2-hydroxypropan-2-yl)phenyl)-4-(cyclohexylmethyl)-thiazole-2-carboxamido)cyclobutanecarboxylic acid] | 631 nM | 8.2 |  |  |  |  |  |  |
| CC(C)(C)c1cc(-c2sc(C(=O)N[C@H]3C[C@H](C(=O)O)C3)nc2CC2CCCCC2)cc(C(C)(C)F)c1 [Example 24, (trans)-3-(5-(3-(tert-Butyl)-5-(2-fluoropropan-2-yl)phenyl)-4-(cyclohexylmethyl)thiazole-2-carboxamido)cyclobutanecarboxylic acid] | 316 nM | 7.5 | 7.5 |  |  |  |  |  |
| CC(C)(C)c1cc(-c2oc(C(N)=O)nc2CC2CCCCC2)cc(C(C)(C)C)c1 [Example 100, 4-(Cyclohexylmethyl)-5-(3,5-di-tert-butylphenyl)oxazole-2-carboxamide] |  |  |  | 6.6/5.8/5.8 | 6.6/5.8/5.8 | 6.6/5.8/5.8 |  |  |
| CC(C)(C)NS(=O)(=O)c1ccc(-c2oc(C(=O)NC3CCOCC3)nc2CC2CCCCC2)cc1C(C)(C)C [Example 100/1] |  |  |  | 5.9/6.3/6.3 | 5.9/6.3/6.3 | 5.9/6.3/6.3 |  |  |
| CC(C)(C)c1cc(-c2nc(C(N)=O)oc2CC2CCCCC2)cc(C(C)(C)C)c1 [Example 101, 5-(Cyclohexylmethyl)-4-(3,5-di-tert-butylphenyl)oxazole-2-carboxamide] |  |  |  | 6.0 |  |  | > 20000 nM | > 20000 nM |
| CC(C)(C)NS(=O)(=O)c1ccc(-c2oc(C(=O)NC34CCC(C(=O)NS(C)(=O)=O)(CC3)CC4)nc2CC2CCCCC2)c2ccccc12 [Example 102, 5-(4-(N-(tert-Butyl)sulfamoyl)naphthalen-1-yl)-4-(cyclohexylmethyl)-N-(4-((methylsulfonyl)carbamoyl)bicyclo[2.2.2]octan-1-yl)oxazole-2-carboxamide] |  |  |  | 6.0/7.3/7.4 | 6.0/7.3/7.4 | 6.0/7.3/7.4 |  |  |
| CC(C)(C)NS(=O)(=O)c1ccc(-c2oc(C(=O)N[C@H]3C[C@H](C(=O)NS(C)(=O)=O)C3)nc2CC2CCCCC2)c2ccccc12 [Example 102/1] |  |  |  | 6.1/6.7/6.7 | 6.1/6.7/6.7 | 6.1/6.7/6.7 |  |  |
| CC(C)(C)NS(=O)(=O)c1ccc(-c2nc(C(=O)NC3CCS(=O)(=O)CC3)oc2CC2CCCCC2)c2ccccc12 [Example 103, 4-(4-(N-(tert-Butyl)sulfamoyl)naphthalen-1-yl)-5-(cyclohexylmethyl)-N-(1,1-dioxidotetrahydro-2H-thiopyran-4-yl)oxazole-2-carboxamide] |  |  |  | 6.3/7.2/7.3 | 6.3/7.2/7.3 | 6.3/7.2/7.3 |  |  |
| CC(C)(C)NS(=O)(=O)c1ccc(-c2nc(C(=O)NC34CCC(C(=O)O)(CC3)CC4)oc2CC2CCCCC2)c2ccccc12 [Example 103/1] |  |  |  | 6.2/7.4/7.4 | 6.2/7.4/7.4 | 6.2/7.4/7.4 |  |  |
| CC(C)(C)NS(=O)(=O)c1ccc(-c2oc(C(=O)NC3CCS(=O)(=O)CC3)nc2CC2CCC2)c2ccccc12 [Example 104, 5-(4-(N-(tert-Butyl)sulfamoyl)naphthalen-1-yl)-4-(cyclobutylmethyl)-N-(1,1-dioxidotetrahydro-2H-thiopyran-4-yl)oxazole-2-carboxamide] |  |  |  | 6.6/7.5/7.9 | 6.6/7.5/7.9 | 6.6/7.5/7.9 |  |  |
| CC(C)(O)CC(=O)Nc1nc(CC2CCCCC2)c(-c2ccc(S(=O)(=O)NC(C)(C)C)c(C(F)(F)F)c2)s1 [Example 200, N-(5-(4-(N-(tert-Butyl)sulfamoyl)-3-(trifluoromethyl)phenyl)-4-(cyclohexylmethyl)thiazol-2-yl)-3-hydroxy-3-methylbutanamide] |  |  |  | 6.6/7.5/7.8 | 6.6/7.5/7.8 | 6.6/7.5/7.8 |  |  |
| CCS(=O)(=O)c1ccc(CC(=O)Nc2nc(CC3CCCCC3)c(-c3ccc(S(=O)(=O)NC(C)(C)C)c(C(F)(F)F)c3)s2)cc1 [Example 200/1] |  |  |  | 7.1/7.4/7.8 | 7.1/7.4/7.8 | 7.1/7.4/7.8 |  |  |
| CC(C)(C)NS(=O)(=O)c1ccc(-c2sc(NS(C)(=O)=O)nc2CC2CCCCC2)cc1C(F)(F)F [Example 201, N-(tert-Butyl)-4-(4-(cyclohexylmethyl)-2-(methylsulfonamido)thiazol-5-yl)-2-(trifluoromethyl)benzenesulfonamide] |  |  |  | 6.0/6.5/6.6 | 6.0/6.5/6.6 | 6.0/6.5/6.6 |  |  |
| CC(C)(C)c1cc(-c2nc(C(N)=O)ncc2CC2CCCCC2)cc(C(C)(C)C)c1 [Example 206, 5-(Cyclohexylmethyl)-4-(3,5-di-tert-butylphenyl)pyrimidine-2-carboxamide] |  |  |  | 5.9/6.3/6.2 | 5.9/6.3/6.2 | 5.9/6.3/6.2 |  |  |
| CC(C)(C)c1cc(-c2nc(C(=O)NC3COC3)ncc2CC2CCCCC2)cc(C(C)(C)C)c1 [Example 207, 5-(Cyclohexylmethyl)-4-(3,5-di-tert-butylphenyl)-N-(oxetan-3-yl)pyrimidine-2-carboxamide] |  |  |  | 5.4/6.4/6.5 | 5.4/6.4/6.5 | 5.4/6.4/6.5 |  |  |
| CC(C)(O)CNC(=O)c1ncc(CC2CCCCC2)c(-c2cc(C(C)(C)C)cc(C(C)(C)C)c2)n1 [Example 207/1] |  |  |  | 6.0/6.2/6.1 | 6.0/6.2/6.1 | 6.0/6.2/6.1 |  |  |
| CC(C)(C)c1cc(-c2cc(C(N)=O)ccc2CC2CCCCC2)cc(C(C)(C)C)c1 [Example 208, 3′,5′-Di-tert-butyl-6-(cyclohexylmethyl)-[1,1′-biphenyl]-3-carboxamide] |  |  |  | 6.5/6.3/6.3 | 6.5/6.3/6.3 | 6.5/6.3/6.3 |  |  |
| CC(C)(C)c1cc(-c2ccc(C(N)=O)cc2CC2CCCCC2)cc(C(C)(C)C)c1 [Example 209] |  |  |  | 6.4/6.2/6.2 | 6.4/6.2/6.2 | 6.4/6.2/6.2 |  |  |
| CCS(=O)(=O)c1ccc(CC(=O)Nc2nc(-c3ccccc3)c(Cc3ccccc3)s2)cc1 [Example 211, N-(5-Benzyl-4-phenylthiazol-2-yl)-2-(4-(ethylsulfonyl)phenyl)acetamide] |  | 6.3 | 6.4 | 5.8 |  |  |  |  |
| CC(C)(C)NS(=O)(=O)c1ccc(-c2sc(C(=O)NC3CCS(=O)(=O)CC3)nc2Cc2ccccc2)c2ccccc12 [Example 300, 4-Benzyl-5-(4-(N-(tert-butyl)sulfamoyl)naphthalen-1-yl)-N-(1,1-dioxidotetrahydro-2H-thiopyran-4-yl)thiazole-2-carboxamide] |  |  |  | 7.1/8.2/8.4 | 7.1/8.2/8.4 | 7.1/8.2/8.4 |  |  |
| CC(C)(C)NS(=O)(=O)c1ccc(-c2sc(C(=O)NC3CCS(=O)(=O)CC3)nc2-c2ccccc2)c2ccccc12 [Example 300/1] |  |  |  | 7.2/7.8/7.9 | 7.2/7.8/7.9 | 7.2/7.8/7.9 |  |  |

— patent publication US10301272B2, “Carboxamide or sulfonamide substituted thiazoles and related derivatives as modulators for the orphan nuclear receptor ROR[γ]” (Phenex Pharmaceuticals AG, priority 2012, dated 2019)
